These results are taken from patent publication US9957271B2, “Substituted bicyclic aza-heterocycles and analogues as sirtuin modulators” (GlaxoSmithKline, LLC, priority 2012, dated 2018).

Each structure is given as a SMILES string.

Experiment [1] addresses T1, SIRT1 (Homo sapiens, UniProt Q96EB6).
T1 sequence (Q96EB6 1-747): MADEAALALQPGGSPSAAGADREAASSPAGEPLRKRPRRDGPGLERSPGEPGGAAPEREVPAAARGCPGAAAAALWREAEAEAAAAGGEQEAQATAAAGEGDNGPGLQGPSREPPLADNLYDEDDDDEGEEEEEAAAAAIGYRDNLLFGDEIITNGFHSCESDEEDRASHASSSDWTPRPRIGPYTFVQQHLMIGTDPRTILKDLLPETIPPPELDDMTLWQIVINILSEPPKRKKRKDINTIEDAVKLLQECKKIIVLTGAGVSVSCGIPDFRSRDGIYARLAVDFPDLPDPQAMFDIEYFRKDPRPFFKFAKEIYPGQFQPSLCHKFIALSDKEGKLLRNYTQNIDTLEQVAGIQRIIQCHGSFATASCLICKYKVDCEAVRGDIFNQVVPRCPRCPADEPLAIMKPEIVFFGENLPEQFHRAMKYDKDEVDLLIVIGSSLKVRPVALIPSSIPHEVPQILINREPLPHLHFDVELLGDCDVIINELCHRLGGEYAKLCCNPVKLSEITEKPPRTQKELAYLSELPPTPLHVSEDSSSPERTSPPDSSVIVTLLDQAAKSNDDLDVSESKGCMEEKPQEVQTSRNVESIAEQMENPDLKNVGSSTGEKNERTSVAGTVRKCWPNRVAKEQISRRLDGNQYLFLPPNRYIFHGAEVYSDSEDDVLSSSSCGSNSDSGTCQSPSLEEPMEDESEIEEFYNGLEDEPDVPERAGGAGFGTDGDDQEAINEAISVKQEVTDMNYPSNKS
The experiment is described as follows: TAMRA based mass spectrometry assay of SIRT1 activity. Conditions: TAMRA peptide substrate; for TAMRA EC1.5: concentration giving 150% activation of SIRT1; for Emax: percent maximum fold activation, read-out: TAMRA % Fold Act. The experiment is classed as biochemical. In short, it runs like this: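 Deacetylation of a biotinylated, TAMRA-tagged p53-based peptide (0.5 μM) by 10 nM His-tagged SIRT1 with 120 μM βNAD+, 25 °C for 25 min, pH 8 Tris-acetate buffer, across a compound concentration range. Quenched by formic acid and read by mass spec as product peptide or OAADPR; activity relative to DMSO reactions, nicotinamide defining maximal inhibition.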

Experiment [2] concerns the target T1, SIRT1. The experiment is described as follows: Trp mass spectrometry assay of SIRT1 activity. In kind it is biochemical. The note with it: Trp peptide substrate; for Trp EC1.5: concentration giving 150% activation of SIRT1; for Emax: percent maximum fold activation, read-out: Trp % Fold Act. The procedure, abridged:
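Activation readout: EC1.5 (concentration raising activity 50% over control) and percent maximum activation, from mass-spec quantitation of OAADPR or deacetylated Trp peptide. Reaction: 0.5 μM acetylated Trp peptide, 120 μM βNAD+, 10 nM bacterially expressed N-His SIRT1, pH 7.5 HEPES buffer with […], 25 min at 25° C.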

`Cc1cc(C)nc(C(=O)Nc2cnn3ccc(-c4ccccc4C(F)(F)F)nc23)c1` [Compound 524]: at SIRT1 [1], the “TAMRA EC1.5” value is recorded as “A (EC1.5<1 μM)” and the Emax is at least 350%. Besides, on SIRT1 [2], the “Trp EC1.5” value is recorded as “C (EC1.5>25 μM)” and the Emax was below 350%.
As for `Cc1nc(C(=O)Nc2cnn3ccc(-c4ccccc4C(F)(F)F)nc23)cs1` [Compound 527], on SIRT1 [1], the “TAMRA EC1.5” value is “A (EC1.5<1 μM)” and the Emax was at least 350%. Also, at SIRT1 [2], the “Trp EC1.5” value is reported as “B (EC1.5 1-25 μM)” and the Emax is below 350%.
As to `O=C(Nc1ccccn1)c1cnn2ccc(-c3ccccc3OC(F)(F)F)nc12` [Compound 529], at SIRT1 [1], the “TAMRA EC1.5” value was “A (EC1.5<1 μM)” and the Emax is at least 350%. For the same compound, at SIRT1 [2], the “Trp EC1.5” value was “A (EC1.5<1 μM)” and the Emax was below 350%.
For the compound `O=C(Nc1cccnc1)c1cnn2ccc(-c3ccccc3OC(F)(F)F)nc12` [Compound 530], at SIRT1 [1], the “TAMRA EC1.5” value is “A (EC1.5<1 μM)” and the Emax was at least 350%. For the same compound, on SIRT1 [2], the “Trp EC1.5” value is on record as “A (EC1.5<1 μM)” and the Emax was at least 350%.
Consider `O=C(Nc1ccncn1)c1cnn2ccc(-c3ccccc3OC(F)(F)F)nc12` [Compound 533, N-(pyrimidin-4-yl)-5-(2-(trifluoromethoxy)phenyl)pyrazolo[1,5-a]pyrimidine-3-carboxamide], for which, at SIRT1 [1], the “TAMRA EC1.5” value was “A (EC1.5<1 μM)” and the Emax was at least 350%. In addition, at SIRT1 [2], the “Trp EC1.5” value is on record as “B (EC1.5 1-25 μM)” and the Emax is below 350%.
For `O=C(Nc1cccc(CN2CCOCC2)n1)c1cnn2ccc(-c3ccccc3OC(F)(F)F)nc12` [Compound 535], at SIRT1 [1], the “TAMRA EC1.5” value is “A (EC1.5<1 μM)” and the Emax was at least 350%. Also, at SIRT1 [2], the “Trp EC1.5” value is on record as “A (EC1.5<1 μM)” and the Emax was at least 350%.
Regarding `COc1cccc(NC(=O)c2cnn3ccc(-c4ccccc4OC(F)(F)F)nc23)n1` [Compound 536], on SIRT1 [1], the “TAMRA EC1.5” value is given as “A (EC1.5<1 μM)” and the Emax was at least 350%. Besides, on SIRT1 [2], the “Trp EC1.5” value is “A (EC1.5<1 μM)” and the Emax is below 350%.
Consider `Cc1cc(-c2ccccc2C(F)(F)F)nn2c(C(=O)Nc3ccncc3F)cnc12` [Compound 541], for which, at SIRT1 [1], the “TAMRA EC1.5” value is reported as “A (EC1.5<1 μM)” and the Emax was at least 350%. Besides, on SIRT1 [2], the “Trp EC1.5” value is recorded as “B (EC1.5 1-25 μM)” and the Emax is at least 350%.
For the compound `Cc1cc(-c2ccccc2C(F)(F)F)nn2c(C(=O)Nc3ccc(F)cn3)cnc12` [Compound 542], on SIRT1 [1], the “TAMRA EC1.5” value was “A (EC1.5<1 μM)” and the Emax was at least 350%. Moreover, at SIRT1 [2], the “Trp EC1.5” value is reported as “B (EC1.5 1-25 μM)” and the Emax is below 350%.
With `Cc1nc2c(C)cc(-c3ccccc3OC(F)(F)F)nn2c1C(=O)Nc1cccc(N2CC3(COC3)C2)n1` [Compound 545], on SIRT1 [1], the “TAMRA EC1.5” value is “A (EC1.5<1 μM)” and the Emax was at least 350%. Moreover, on SIRT1 [2], the “Trp EC1.5” value is on record as “A (EC1.5<1 μM)” and the Emax is at least 350%.
For `Cc1nn2ccc(-c3ccccc3C(F)(F)F)nc2c1C(=O)Nc1cccnc1` [Compound 549], on SIRT1 [1], the “TAMRA EC1.5” value is “A (EC1.5<1 μM)” and the Emax was at least 350%. Besides, on SIRT1 [2], the “Trp EC1.5” value is reported as “B (EC1.5 1-25 μM)” and the Emax was at least 350%.
`COc1cccc(NC(=O)c2c(C)nn3ccc(-c4ccccc4C(F)(F)F)nc23)n1` [Compound 551, N-(6-methoxypyridin-2-yl)-2-methyl-5-(2-(trifluoromethyl)phenyl)pyrazolo[1,5-a]pyrimidine-3-carboxamide]: at SIRT1 [1], the “TAMRA EC1.5” value is “A (EC1.5<1 μM)” and the Emax was at least 350%. Moreover, on SIRT1 [2], the “Trp EC1.5” value is recorded as “A (EC1.5<1 μM)” and the Emax is at least 350%.
On to `Cc1nn2ccc(-c3ccccc3C(F)(F)F)nc2c1C(=O)Nc1cccc(N2CCOCC2)n1` [Compound 552], for which, at SIRT1 [1], the “TAMRA EC1.5” value is “A (EC1.5<1 μM)” and the Emax is at least 350%. Moreover, on SIRT1 [2], the “Trp EC1.5” value is “A (EC1.5<1 μM)” and the Emax is at least 350%.
Take `O=C(Nc1cncc(OC[C@H](O)CO)n1)c1cnc2ccc(-c3ccccc3C(F)(F)F)nn12` [Compound 555]: on SIRT1 [1], the “TAMRA EC1.5” value is reported as “A (EC1.5<1 μM)” and the Emax was at least 350%. Further, at SIRT1 [2], the “Trp EC1.5” value is listed as “A (EC1.5<1 μM)” and the Emax was at least 350%.
For `Cc1cc(NC(=O)c2cnc3ccc(-c4ccccc4C(F)(F)F)nn23)cc(OC[C@@H](O)CO)n1` [Compound 558], on SIRT1 [1], the “TAMRA EC1.5” value is recorded as “A (EC1.5<1 μM)” and the Emax was at least 350%. Further, at SIRT1 [2], the “Trp EC1.5” value was “A (EC1.5<1 μM)” and the Emax was at least 350%.
`O=C(Nc1ncccn1)c1cnn2ccc(-c3ccccc3OC(F)(F)F)nc12` [Compound 559]: at SIRT1 [1], the “TAMRA EC1.5” value is reported as “B (EC1.5 1-25 μM)” and the Emax was below 350%. Besides, at SIRT1 [2], the “Trp EC1.5” value was “B (EC1.5 1-25 μM)” and the Emax is at least 350%.
In the case of `Cc1nc2c(C)cc(-c3ccccc3C(F)(F)F)nn2c1C(=O)NCc1ccccn1` [Compound 561], on SIRT1 [1], the “TAMRA EC1.5” value was “B (EC1.5 1-25 μM)” and the Emax is below 350%. At SIRT1 [2], the “Trp EC1.5” value was “B (EC1.5 1-25 μM)” and the Emax is at least 350%.
For the compound `Cc1cccc(C(=O)Nc2cnc3ccc(N4CC[C@H](F)C4)nn23)n1` [Compound 565, (S)-N-(6-(3-fluoropyrrolidin-1-yl)imidazo[1,2-b]pyridazin-3-yl)-6-methylpicolinamide], on SIRT1 [1], the “TAMRA EC1.5” value is given as “B (EC1.5 1-25 μM)” and the Emax is at least 350%. Moreover, on SIRT1 [2], the “Trp EC1.5” value is reported as “B (EC1.5 1-25 μM)” and the Emax is below 350%.
For the compound `Cc1cc(C)nc(C(=O)Nc2cnc3ccc(N4CC[C@H](F)C4)nn23)c1` [Compound 566], on SIRT1 [1], the “TAMRA EC1.5” value is given as “B (EC1.5 1-25 μM)” and the Emax is at least 350%. At SIRT1 [2], the “Trp EC1.5” value is on record as “B (EC1.5 1-25 μM)” and the Emax was below 350%.
With `Cc1nn2ccc(-c3ccccc3C(F)(F)F)nc2c1NC(=O)c1cccnc1` [Compound 568], at SIRT1 [1], the “TAMRA EC1.5” value was “C (EC1.5>25 μM)” and the Emax was below 350%. Further, at SIRT1 [2], the “Trp EC1.5” value was “C (EC1.5>25 μM)” and the Emax is below 350%.
In the case of `Cc1nn2ccc(-c3ccccc3C(F)(F)F)nc2c1NC(=O)c1cnccn1` [Compound 571], on SIRT1 [1], the “TAMRA EC1.5” value is “C (EC1.5>25 μM)” and the Emax was below 350%. Besides, at SIRT1 [2], the “Trp EC1.5” value is “B (EC1.5 1-25 μM)” and the Emax is below 350%.
As for `Cc1nn2ccc(-c3ccccc3C(F)(F)F)nc2c1NC(=O)c1ccncn1` [Compound 572], on SIRT1 [1], the “TAMRA EC1.5” value is recorded as “C (EC1.5>25 μM)” and the Emax is below 350%. At SIRT1 [2], the “Trp EC1.5” value is listed as “C (EC1.5>25 μM)” and the Emax is below 350%.
Turning to `Cc1nn2ccc(-c3ccccc3C(F)(F)F)nc2c1NC(=O)c1cccc(N2CCOCC2)n1` [Compound 574], at SIRT1 [1], the “TAMRA EC1.5” value is on record as “A (EC1.5<1 μM)” and the Emax was at least 350%. In addition, at SIRT1 [2], the “Trp EC1.5” value is “B (EC1.5 1-25 μM)” and the Emax is below 350%.
For the compound `Cc1nn2ccc(-c3ccccc3C(F)(F)F)nc2c1C(=O)Nc1cccc(O)n1` [Compound 577], at SIRT1 [1], the “TAMRA EC1.5” value is on record as “B (EC1.5 1-25 μM)” and the Emax was below 350%. Also, at SIRT1 [2], the “Trp EC1.5” value was “A (EC1.5<1 μM)” and the Emax was below 350%.
In the case of `O=C(Nc1cccc(N2CCOCC2)n1)c1cnc2ccc(N3CCCC(C(F)(F)F)C3)nn12` (stereo not shown) [Compound 578], at SIRT1 [1], the “TAMRA EC1.5” value is given as “A (EC1.5<1 μM)” and the Emax is at least 350%. Besides, on SIRT1 [2], the “Trp EC1.5” value was “A (EC1.5<1 μM)” and the Emax was at least 350%.
Take `O=C(Nc1cccc(O)n1)c1cnn2ccc(-c3ccccc3OC(F)(F)F)nc12` [Compound 580]: at SIRT1 [1], the “TAMRA EC1.5” value is recorded as “B (EC1.5 1-25 μM)” and the Emax is at least 350%. Further, at SIRT1 [2], the “Trp EC1.5” value is on record as “A (EC1.5<1 μM)” and the Emax is at least 350%.
With `O=C(Nc1cnn2ccc(-c3ccccc3OC(F)(F)F)nc12)c1ccncc1` [Compound 583], at SIRT1 [1], the “TAMRA EC1.5” value was “B (EC1.5 1-25 μM)” and the Emax was below 350%. Besides, at SIRT1 [2], the “Trp EC1.5” value was “C (EC1.5>25 μM)” and the Emax was below 350%.
Take `O=C(Nc1cnn2ccc(-c3ccccc3OC(F)(F)F)nc12)c1cnccn1` [Compound 584]: on SIRT1 [1], the “TAMRA EC1.5” value is listed as “B (EC1.5 1-25 μM)” and the Emax was at least 350%. On SIRT1 [2], the “Trp EC1.5” value is listed as “C (EC1.5>25 μM)” and the Emax is below 350%.
